The record followed here is ChEMBL document CHEMBL2321762, “Design, synthesis, and SAR of N-((1-(4-(propylsulfonyl)piperazin-1-yl)cycloalkyl)methyl)benzamide inhibitors of glycine transporter-1” (Bioorg Med Chem Lett, 2013).

The source made the active and inactive calls. No cut-off for these calls is given here.

Data set [1] has as its target T1, Sodium- and chloride-dependent glycine transporter 1 (Homo sapiens, UniProt P48067).
T1 sequence (P48067 whole entry): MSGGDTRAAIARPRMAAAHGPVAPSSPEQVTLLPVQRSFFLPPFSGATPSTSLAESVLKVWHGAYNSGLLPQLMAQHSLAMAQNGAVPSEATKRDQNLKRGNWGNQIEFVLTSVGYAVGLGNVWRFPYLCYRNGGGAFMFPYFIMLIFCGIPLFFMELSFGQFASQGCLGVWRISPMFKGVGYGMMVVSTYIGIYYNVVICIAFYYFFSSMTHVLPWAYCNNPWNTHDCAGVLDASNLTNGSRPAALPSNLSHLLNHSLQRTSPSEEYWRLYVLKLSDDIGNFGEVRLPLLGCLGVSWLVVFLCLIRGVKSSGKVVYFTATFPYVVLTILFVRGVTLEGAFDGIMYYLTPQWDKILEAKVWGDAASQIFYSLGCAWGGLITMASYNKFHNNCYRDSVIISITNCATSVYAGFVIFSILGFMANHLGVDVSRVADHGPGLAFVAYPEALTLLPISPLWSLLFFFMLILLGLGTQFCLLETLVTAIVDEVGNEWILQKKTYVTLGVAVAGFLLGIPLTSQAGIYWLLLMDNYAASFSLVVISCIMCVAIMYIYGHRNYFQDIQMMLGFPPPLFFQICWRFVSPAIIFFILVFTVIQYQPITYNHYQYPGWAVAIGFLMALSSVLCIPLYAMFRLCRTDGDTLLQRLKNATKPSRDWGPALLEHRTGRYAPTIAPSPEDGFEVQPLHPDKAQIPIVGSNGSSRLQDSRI
Put plainly: Inhibition of GlyT1a in human JAR cells assessed as inhibition of [3H]glycine uptake by scintillation proximity assay. It counts as cell-based. On the technique in general: In a scintillation proximity assay essentially only radioactivity close to the scintillant gives light.

Data set [2] in a line: Metabolic stability in human liver microsomes assessed as compound remaining at 10 uM after 60 mins. It counts as ADME, Microsome. To be noted: read-out: Stability. (Microsomes from liver hold many membrane-bound enzymes, among them those of drug oxidation.)
The target in data set [3] is T2, Sodium- and chloride-dependent glycine transporter 2 (Homo sapiens, UniProt Q9Y345).
T2 sequence (Q9Y345 whole entry): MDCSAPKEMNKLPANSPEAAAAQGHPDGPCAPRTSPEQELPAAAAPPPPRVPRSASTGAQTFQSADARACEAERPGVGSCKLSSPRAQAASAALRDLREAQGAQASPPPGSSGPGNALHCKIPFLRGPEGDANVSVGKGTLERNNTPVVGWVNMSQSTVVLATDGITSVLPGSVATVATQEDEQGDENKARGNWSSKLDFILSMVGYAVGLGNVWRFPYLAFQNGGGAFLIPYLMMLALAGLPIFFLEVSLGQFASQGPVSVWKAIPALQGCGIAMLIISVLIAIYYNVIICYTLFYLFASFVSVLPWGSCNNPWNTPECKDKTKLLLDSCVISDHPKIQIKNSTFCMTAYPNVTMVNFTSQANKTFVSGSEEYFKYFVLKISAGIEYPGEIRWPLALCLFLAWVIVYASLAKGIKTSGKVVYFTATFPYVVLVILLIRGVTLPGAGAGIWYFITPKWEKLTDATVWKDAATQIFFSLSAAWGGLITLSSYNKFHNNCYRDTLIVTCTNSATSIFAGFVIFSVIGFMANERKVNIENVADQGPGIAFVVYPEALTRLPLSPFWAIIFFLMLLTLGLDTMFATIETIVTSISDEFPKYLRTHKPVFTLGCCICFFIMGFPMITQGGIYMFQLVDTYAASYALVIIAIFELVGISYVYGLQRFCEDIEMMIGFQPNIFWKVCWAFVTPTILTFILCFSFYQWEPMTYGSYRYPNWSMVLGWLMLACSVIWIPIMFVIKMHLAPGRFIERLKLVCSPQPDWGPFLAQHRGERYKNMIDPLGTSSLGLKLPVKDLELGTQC
Description: Inhibition of human GlyT2 expressed in HEK293 cells assessed as inhibition of [3H]glycine uptake by scintillation proximity assay. It is filed as cell-based.

Data set [4] can be described thus: Plasma protein binding in rat. It is filed as ADME, cell-free. Conditions: read-out: PPB (converted).
Data set [5] is described as follows: Oral bioavailability in rat at 10 mg/kg. It is filed as ADME, organism-based. To be noted: in vivo.
Data set [6] in a line: Terminal half life in rat at 2 mg/kg, iv and 10 mg/kg, po. Conditions: in vivo, read-out: beta t1/2 (converted). It counts as ADME, organism-based.
Data set [7] in a line: Tmax in rat at 2 mg/kg, iv and 10 mg/kg, po. It counts as ADME, organism-based. To be noted: in vivo.
Data set [8] is described as follows: AUC (0 to infinity) in rat at 2 mg/kg, iv and 10 mg/kg, po. It counts as ADME, organism-based. Conditions: plasma.
A short description of data set [9]: Cmax in rat at 2 mg/kg, iv and 10 mg/kg, po. It is filed as ADME, organism-based. Conditions: in vivo.
Data set [10] can be described thus: Total plasma clearance in rat at 2 mg/kg, iv and 10 mg/kg, po. It counts as ADME, organism-based.
Data set [11] in a line: Volume of distribution at steady state in rat at 2 mg/kg, iv and 10 mg/kg, po. It is filed as ADME, organism-based. Conditions: in vivo, read-out: Vdss.
In data set [12] the test system is Salmonella typhimurium. Put plainly: Mutagenicity against Salmonella typhimurium TA100 by mini-AMES test in absence of rat S9 fraction. It is filed as toxicity, organism-based. To be noted: salmonella enterica subsp. enterica serovar typhimurium.
The test system of data set [13] is Salmonella typhimurium. Description: Mutagenicity against Salmonella typhimurium TA98 by mini-AMES test in absence of rat S9 fraction. It is filed as toxicity, organism-based. To be noted: salmonella enterica subsp. enterica serovar typhimurium.
Data set [14] has as its system Salmonella typhimurium. Put plainly: Mutagenicity against Salmonella typhimurium TA100 by mini-AMES test in presence of rat S9 fraction. It counts as toxicity, organism-based. Conditions: salmonella enterica subsp. enterica serovar typhimurium.
For data set [15], the system named is Salmonella typhimurium. Put plainly: Mutagenicity against Salmonella typhimurium TA98 by mini-AMES test in presence of rat S9 fraction. It counts as toxicity, organism-based. Conditions: salmonella enterica subsp. enterica serovar typhimurium.
Data set [16] can be described thus: Plasma protein binding in human. Conditions: read-out: PPB (converted). It is filed as ADME, cell-free.
Data set [17] is described as follows: Intrinsic clearance in rat liver microsomes at 1 uM. It counts as ADME, Microsome. To be noted: read-out: CLH.
The nature of data set [18]: Intrinsic clearance in human liver microsomes at 1 uM. It counts as ADME, Microsome. To be noted: read-out: CLH.
For data set [19], the target named is Cytochrome P450 2C9 (Homo sapiens, UniProt P11712). Put plainly: Inhibition of CYP2C9 (unknown origin). It is filed as ADME.
For data set [20], the target named is Cytochrome P450 2C19 (Homo sapiens, UniProt P33261). Description: Inhibition of CYP2C19 (unknown origin). It is filed as ADME.
Data set [21] addresses Cytochrome P450 2D6 (Homo sapiens, UniProt P10635). Description: Inhibition of CYP2D6 (unknown origin). It is filed as ADME.
Data set [22] addresses Cytochrome P450 3A4 (Homo sapiens, UniProt P08684). Put plainly: Inhibition of CYP3A4 (unknown origin). It is filed as ADME.
Data set [23] is described as follows: Ratio of drug uptake in brain to plasma in rat at 10 to 75 mg/kg, po after 30 mins. The arrangement: dose 10-75 mg/kg, route oral. Conditions: read-out: BPR. It counts as ADME, organism-based.
The nature of data set [24]: Drug uptake in po dosed rat CSF after 30 mins. It is filed as ADME, organism-based, Cerebrospinal fluid. To be noted: in vivo, 0.5 h.
Data set [25] deals with Rattus norvegicus. Description: Antischizophrenic activity in rat assessed as increased glycine level in CSF at 30 to 75 mg/kg, po after 30 mins relative to control. It is filed as functional, organism-based.
Data set [26] concerns Rattus norvegicus. Description: Antischizophrenic activity in po dosed rat assessed as increased glycine level in CSF after 30 mins relative to control. It is filed as functional, organism-based.

In general, IC50 refers to the concentration at which inhibition is half-maximal. As a reminder, the bioavailability is dose-corrected exposure relative to a reference, in per cent. Broadly, the Tmax is the time from dosing to the highest level. A word on the AUC(0-inf): it is total exposure, with the tail of the curve extrapolated. The Cmax is the peak of the concentration-time curve.

Sequence of Cytochrome P450 3A4 (P08684 whole entry): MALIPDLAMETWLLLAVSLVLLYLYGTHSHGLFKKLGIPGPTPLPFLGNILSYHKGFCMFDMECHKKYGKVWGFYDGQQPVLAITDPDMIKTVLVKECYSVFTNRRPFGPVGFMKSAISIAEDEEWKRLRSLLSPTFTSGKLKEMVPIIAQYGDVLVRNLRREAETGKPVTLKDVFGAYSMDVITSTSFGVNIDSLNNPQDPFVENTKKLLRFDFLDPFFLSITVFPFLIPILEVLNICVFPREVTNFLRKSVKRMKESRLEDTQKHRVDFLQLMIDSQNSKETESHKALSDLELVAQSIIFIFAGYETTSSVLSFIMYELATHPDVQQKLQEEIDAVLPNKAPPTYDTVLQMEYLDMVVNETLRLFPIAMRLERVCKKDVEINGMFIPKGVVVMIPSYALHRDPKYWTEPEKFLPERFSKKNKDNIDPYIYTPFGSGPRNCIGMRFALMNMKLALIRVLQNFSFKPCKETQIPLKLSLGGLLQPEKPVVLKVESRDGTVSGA
Sequence of Cytochrome P450 2C9 (P11712 whole entry): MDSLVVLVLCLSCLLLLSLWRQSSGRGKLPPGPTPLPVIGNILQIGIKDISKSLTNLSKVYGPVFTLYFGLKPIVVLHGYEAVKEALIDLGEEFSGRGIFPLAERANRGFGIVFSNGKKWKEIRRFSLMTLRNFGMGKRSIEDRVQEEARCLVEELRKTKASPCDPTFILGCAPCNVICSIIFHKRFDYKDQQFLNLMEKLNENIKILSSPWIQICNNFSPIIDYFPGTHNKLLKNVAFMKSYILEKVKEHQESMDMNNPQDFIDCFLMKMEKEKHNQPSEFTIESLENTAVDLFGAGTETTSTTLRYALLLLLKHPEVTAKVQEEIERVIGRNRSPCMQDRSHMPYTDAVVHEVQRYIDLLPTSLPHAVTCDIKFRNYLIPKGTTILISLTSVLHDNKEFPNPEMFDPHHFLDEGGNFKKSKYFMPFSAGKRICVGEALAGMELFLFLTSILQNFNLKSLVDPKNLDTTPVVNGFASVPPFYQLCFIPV
Sequence of Cytochrome P450 2D6 (P10635 whole entry): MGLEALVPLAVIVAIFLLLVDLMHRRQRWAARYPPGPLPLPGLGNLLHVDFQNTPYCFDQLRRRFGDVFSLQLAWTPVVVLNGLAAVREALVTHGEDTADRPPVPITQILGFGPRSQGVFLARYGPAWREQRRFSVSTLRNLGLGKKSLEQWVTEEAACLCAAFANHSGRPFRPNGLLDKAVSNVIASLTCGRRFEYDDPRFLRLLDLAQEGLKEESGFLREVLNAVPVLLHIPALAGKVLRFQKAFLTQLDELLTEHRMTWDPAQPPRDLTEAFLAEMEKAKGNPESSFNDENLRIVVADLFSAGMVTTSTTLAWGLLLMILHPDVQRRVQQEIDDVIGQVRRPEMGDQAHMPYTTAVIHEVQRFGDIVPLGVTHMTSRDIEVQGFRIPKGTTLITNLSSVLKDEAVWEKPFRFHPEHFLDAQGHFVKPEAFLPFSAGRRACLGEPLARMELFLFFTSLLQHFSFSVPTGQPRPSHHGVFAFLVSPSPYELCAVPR
Sequence of Cytochrome P450 2C19 (P33261 whole entry): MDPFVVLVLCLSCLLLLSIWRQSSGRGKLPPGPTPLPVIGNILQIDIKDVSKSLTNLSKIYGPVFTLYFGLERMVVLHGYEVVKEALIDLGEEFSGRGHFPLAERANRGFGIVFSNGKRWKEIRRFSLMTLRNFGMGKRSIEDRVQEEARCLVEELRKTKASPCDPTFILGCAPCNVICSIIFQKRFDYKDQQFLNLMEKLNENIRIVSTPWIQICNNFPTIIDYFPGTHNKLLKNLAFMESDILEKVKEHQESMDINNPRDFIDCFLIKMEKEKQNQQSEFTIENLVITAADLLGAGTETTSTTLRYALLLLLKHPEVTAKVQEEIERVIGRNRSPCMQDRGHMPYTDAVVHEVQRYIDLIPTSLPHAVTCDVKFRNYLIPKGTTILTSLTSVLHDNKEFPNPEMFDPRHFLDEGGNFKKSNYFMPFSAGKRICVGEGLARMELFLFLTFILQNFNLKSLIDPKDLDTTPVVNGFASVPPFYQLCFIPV

With `CCCS(=O)(=O)N1CCN(C2(CNC(=O)c3c(F)cccc3F)C[C@H]3C[C@H]3C2)CC1` (mixture of isomers), the IC50 in data set [1] was 621 nM.
Turning to `CCCS(=O)(=O)N1CCN(C2(CNC(=O)c3c(Cl)cccc3Cl)CCCCC2)CC1`, in data set [2], the remaining at 1 h, 10 µM was 3%. The figures for the IC50 in data set [1] and in data set [3] were 12.8 nM and greater than 75000 nM, respectively.
With `CCCS(=O)(=O)N1CCN(C2(CNC(=O)c3ccccc3C(F)(F)F)CCCCC2)CC1`, the remaining at 1 h, 10 µM in data set [2] stood at 5%.
Turning to `CCCS(=O)(=O)N1CCN(C2(CNC(=O)c3ccc(Cl)cc3Cl)CCOCC2)CC1`, the remaining at 1 h, 10 µM in data set [2] was found to be 100%. Besides, in [1], the IC50 was 500 nM.
In the case of `CCCS(=O)(=O)N1CCN(C2(CNC(=O)c3ccc(OC(F)(F)F)cc3)CCCCC2)CC1`, in [2], the remaining at 1 h, 10 µM was determined as 11%. The concentration for half-maximal inhibition (IC50) in data set [3] is greater than 75000 nM.
With `CCCS(=O)(=O)N1CCN(C2(CNC(=O)c3ccc(OC)cc3F)CCCCC2)CC1`, the remaining at 1 h, 10 µM in [2] was found to be 4%. The IC50 is 17.1 nM in data set [1] and greater than 75000 nM in [3].
As to `CCCS(=O)(=O)N1CCN(C2(CNC(=O)c3ccccc3OC(F)(F)F)CCCCC2)CC1`, the remaining at 1 h, 10 µM in [2] stood at 2%. In [3], the IC50 was greater than 75000 nM.
The matching figures for `CCCS(=O)(=O)N1CCN(C2(CNC(=O)c3c(F)cccc3F)CCCCC2)CC1`: 16% and greater than 75000 nM.
With `CCCS(=O)(=O)N1CCN(C2(CNC(=O)c3c(N)cccc3Cl)CCN(C)CC2)CC1`, in [2], the remaining at 1 h, 10 µM was found to be 40%.
In the case of `CCCS(=O)(=O)N1CCN(C2(CNC(=O)c3c(N)cccc3Cl)CCCCC2)CC1`, the remaining at 1 h, 10 µM in data set [2] is 29%. For the same compound, the IC50 is 15.1 nM in [1] and greater than 75000 nM in data set [3].
`CCCS(=O)(=O)N1CCN(C2(CNC(=O)c3cccc(C(F)(F)F)c3)CCCCC2)CC1`: the IC50 in data set [1] is 523 nM; in data set [3] it was greater than 75000 nM.
Turning to `CCCS(=O)(=O)N1CCN(C2(CNC(=O)c3c(F)cccc3F)CCC(F)(F)CC2)CC1`, the fraction unbound in data set [4] is 0.16; in data set [16], 0.13. The bioavailability in data set [5] is 25.7%. In data set [6], the half-life is 2.9 h. Moreover, the Tmax in data set [7] stood at 1.5 h. Moreover, in data set [8], the AUC(0-inf) was determined as 2000 ng·h/mL. Besides, in [9], the concentration peaked (Cmax) at 486 ng/mL. Also, the clearance in [10] is 22 mL/min/kg. The Vd in [11] came to 3.26 L/kg. For the same compound, the Activity result in data set [12] is “Non-toxic”; in data set [13], “Non-toxic”; in [14], “Non-toxic”; in [15] it was “Non-toxic”; in [26], “Dose-dependent effect”. In addition, the microsomal CLint at 1 µM in data set [17] was determined as 5.5 µL/min/mg; in data set [18] it was 13 µL/min/mg. The IC50 in [19], in data set [20], in data set [21] and in data set [22] was greater than 10000 nM in each case. Besides, the Kp at 0.5 h in [23] came to 0.13. In addition, the Drug uptake result in [24] was “Dose-dependent effect”. The outcome in data set [25] was Active. The remaining at 1 h, 10 µM in data set [2] stood at 64%.
For `CCCS(=O)(=O)N1CCN(C2(CNC(=O)c3c(N)cccc3Cl)CCCCCC2)CC1`, the IC50 in [1] worked out at 6.3 nM.
`CCCS(=O)(=O)N1CCN(C2(CNC(=O)c3c(OC)cc(F)cc3SC)CCCCC2)CC1`: the remaining at 1 h, 10 µM in data set [2] was 1%. In addition, in [1], the IC50 stood at 6.1 nM.
Turning to `CCCS(=O)(=O)N1CCN(C2(CNC(=O)c3ccc(F)cc3C)CCCCC2)CC1`, the remaining at 1 h, 10 µM in data set [2] amounted to 2%. For the same compound, in data set [3], the IC50 is greater than 75000 nM.
Consider `CCCS(=O)(=O)N1CCN(C2(CNC(=O)c3ccc(Cl)cc3Cl)CCCCC2)CC1`, for which the remaining at 1 h, 10 µM in [2] is 11%. Also, the IC50 was 22.7 nM in [1] and greater than 75000 nM in data set [3].
In the same order, the values of `CCCS(=O)(=O)N1CCN(C2(CNC(=O)c3cccc(C(F)(F)F)c3Cl)CCCCC2)CC1` are 1%, 77.9 nM and greater than 75000 nM.
In the same order, the values of `CCCS(=O)(=O)N1CCN(C2(CNC(=O)c3c(OC)cc(C(F)(F)F)cc3C(F)(F)F)CCCCC2)CC1` are 10%, 4.4 nM and greater than 75000 nM.
The matching figures for `CCCS(=O)(=O)N1CCN(C2(CNC(=O)c3ccc(Cl)cc3)CCCCC2)CC1`: 4%, 175 nM and greater than 75000 nM.
`CCCS(=O)(=O)N1CCN(C2(CNC(=O)c3ccc(Cl)c(Cl)c3)CCCCC2)CC1`: the remaining at 1 h, 10 µM in [2] stood at 5%. Further, the IC50 in [3] was greater than 75000 nM.
